The values below come from US6306890A, “Esters derived from indolealkanols and novel amides derived from indolealkylamides that are selective COX-2 inhibitors” (Vanderbilt University, priority 1999, dated 2001).

One experiment concerns the target T1, ovine COX-1 (Ovis aries, UniProt P05979).
T1 sequence (P05979 25-600): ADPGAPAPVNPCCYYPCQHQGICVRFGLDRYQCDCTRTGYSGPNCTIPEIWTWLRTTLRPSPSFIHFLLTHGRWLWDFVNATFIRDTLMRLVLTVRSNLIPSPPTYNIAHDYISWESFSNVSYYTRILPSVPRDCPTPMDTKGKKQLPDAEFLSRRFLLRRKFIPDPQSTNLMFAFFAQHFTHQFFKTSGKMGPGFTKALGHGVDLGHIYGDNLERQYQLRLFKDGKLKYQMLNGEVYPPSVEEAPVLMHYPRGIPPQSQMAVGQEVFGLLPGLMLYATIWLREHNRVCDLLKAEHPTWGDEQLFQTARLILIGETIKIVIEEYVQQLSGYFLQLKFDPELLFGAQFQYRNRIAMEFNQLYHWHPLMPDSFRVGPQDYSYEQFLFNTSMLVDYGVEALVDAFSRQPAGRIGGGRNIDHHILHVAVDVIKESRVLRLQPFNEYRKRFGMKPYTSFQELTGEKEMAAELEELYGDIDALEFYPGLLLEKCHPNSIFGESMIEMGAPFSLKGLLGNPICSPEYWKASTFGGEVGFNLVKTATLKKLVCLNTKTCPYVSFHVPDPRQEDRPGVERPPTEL
The experiment can be described thus: Inhibition of ovine COX-1, TLC assay ([1-14C]-arachidonic acid), time-dependent.

Experiment [1] addresses T2, COX-2 in activated RAW264.7 macrophages (Mus musculus, UniProt Q05769).
T2 construct: PGD2 from [1-14C]-arachidonic acid by TLC
T2 sequence (Q05769 18-604): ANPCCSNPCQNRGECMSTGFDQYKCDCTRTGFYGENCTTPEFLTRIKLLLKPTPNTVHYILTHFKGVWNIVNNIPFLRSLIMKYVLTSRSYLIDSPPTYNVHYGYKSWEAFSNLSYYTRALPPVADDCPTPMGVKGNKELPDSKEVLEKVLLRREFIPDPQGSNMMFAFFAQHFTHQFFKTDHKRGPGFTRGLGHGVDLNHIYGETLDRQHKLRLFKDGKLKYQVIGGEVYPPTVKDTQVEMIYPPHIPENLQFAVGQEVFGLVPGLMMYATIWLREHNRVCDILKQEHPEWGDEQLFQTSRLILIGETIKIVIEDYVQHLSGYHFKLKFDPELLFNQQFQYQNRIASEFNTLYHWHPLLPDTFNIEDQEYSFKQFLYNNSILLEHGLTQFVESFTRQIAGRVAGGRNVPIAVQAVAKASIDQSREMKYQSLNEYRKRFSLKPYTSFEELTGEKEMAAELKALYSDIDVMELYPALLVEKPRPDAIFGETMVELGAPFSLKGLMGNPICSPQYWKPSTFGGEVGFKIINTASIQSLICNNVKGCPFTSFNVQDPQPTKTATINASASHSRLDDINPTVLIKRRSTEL
The experiment can be described thus: Inhibition of COX-2 activity (PGD2 production) in intact activated RAW264.7 cells. It is filed as cell-based, murine. The settings on record: FIG. 1; inhibitor 0-1 μM, 30 minutes at 37° C.; LPS + IFN-γ activated. The protocol:
The ability of these compounds to inhibit COX-2 in intact cells was assayed in activated RAW264.7 macrophages in which COX-2 activity was induced by pathologic stimuli. The macrophages were treated with lipopolysaccharide ([…]) and γ-interferon (10 U/mL) for 7.5 hours to induce COX-2 and then treated with several concentrations of each of inventive Compounds 5c, 5e, and 9e.
More specifically, low passage number murine RAW264.7 cells were grown in DMEM containing 10% heat-inactivated FBS. Cells (6.2×10^6 cells/T25 flask) were activated with 500 ng/mL LPS and 10 units/mL IFN-γ in serum-free DMEM for 7 hours. Vehicle (DMSO) or inhibitor (inventive Compound 5c, 5e, or 9e) in DMSO (0-1 μM) was added for 30 minutes at 37° C. […] Aliquots (200 μL) were removed into termination solution and total products were quantitatively determined by the TLC assay as described earlier.

Another experiment concerns the target T3, human COX-2 (Homo sapiens, UniProt P35354).
T3 sequence (P35354 18-604): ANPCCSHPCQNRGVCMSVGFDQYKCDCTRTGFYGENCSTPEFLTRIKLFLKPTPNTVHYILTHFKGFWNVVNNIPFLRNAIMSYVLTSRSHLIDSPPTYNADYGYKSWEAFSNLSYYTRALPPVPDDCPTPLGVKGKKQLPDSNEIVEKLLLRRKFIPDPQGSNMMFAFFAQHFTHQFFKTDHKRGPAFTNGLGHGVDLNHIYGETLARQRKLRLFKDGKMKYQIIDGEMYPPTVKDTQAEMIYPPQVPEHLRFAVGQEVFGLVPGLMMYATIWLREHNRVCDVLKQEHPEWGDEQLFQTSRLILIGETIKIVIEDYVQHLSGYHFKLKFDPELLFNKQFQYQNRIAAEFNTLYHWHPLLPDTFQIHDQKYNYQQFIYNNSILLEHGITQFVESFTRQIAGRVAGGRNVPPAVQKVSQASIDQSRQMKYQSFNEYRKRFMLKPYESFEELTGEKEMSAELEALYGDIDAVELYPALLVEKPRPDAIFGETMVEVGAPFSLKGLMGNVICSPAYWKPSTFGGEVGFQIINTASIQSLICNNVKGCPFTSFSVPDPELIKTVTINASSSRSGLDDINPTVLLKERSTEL
Nature of the experiment: Inhibition of purified human COX-2, TLC assay ([1-14C]-arachidonic acid), time-dependent. As to conditions: for Selectivity: COX-2 selectivity ratio, IC50 COX-1 / IC50 COX-2.

Experiment [2] concerns carrageenan-induced rat foot paw edema. The experiment can be described thus: Carrageenan-induced rat foot paw edema assay. It is filed as in vivo, rat (male Sprague Dawley). The settings on record: FIG. 2 / FIG. 3; gavage 1 hour after carrageenan, paw volume at 3 hour post-injection. The protocol: All procedures were performed according to approved animal protocols (#M/98/251, Vanderbilt University Animal Care Committee). Male Sprague Dawley rats (Harlan Sprague Dawley, Indianapolis, Ind.) (150-175 grams) were fasted for 18 hours and then injected with λ-carrageenan (0.1 ml of a 1% suspension in 0.85% saline, Fluka BioChemika, Milwaukee, Wis.) into the right hind footpad. After 1 hour, 90 μl inhibitor (either Compound 5c or Compound 9e) in DMSO was added to 6 ml corn oil, and the rats were gavaged with 0.5 ml corn oil containing DMSO or containing DMSO and inhibitor.
The ipsilateral footpad volume was measured with a water displacement plethysmometer (Ugo Basile, Italy, distributed by Stoelting Co., Wood Dale, Ill.) at 3 hour post-injection and compared to the initial pre-injection paw volume. Inhibitor concentrations were varied as shown in FIG. 2 (Compound 5c) and FIG. 3 (Compound 9e), with n=6 animals per group in duplicate experiments.

Read-outs that look alike come from different tables or passages of the source.

In turn, `COc1ccc2c(c1)c(CCNC(=O)c1ccc(Cl)cc1)c(C)n2Cc1ccc(Br)cc1` [Compound 9h, N-(p-bromobenzyl)-5-methoxy-2-methylindole-3-ethyl(p-chloro) benzamide] returned a half-maximal inhibitory concentration (IC50) on ovine COX-1 of over 66000 nM.
Regarding `COc1ccc2c(c1)c(CCOC(=O)c1ccc(Cl)cc1)c(C)n2C(=O)c1ccc(Cl)cc1` [Compound 5e, N -(p-chlorobenzoyl)-5-methoxy-2-methylindole-3-ethyl-(p-chloro)benzoate], the figures for the concentration for half-maximal inhibition (IC50) against ovine COX-1 and against human COX-2 were over 66000 nM and 50 nM, respectively. Also, the “inhibition of production of PGD2” value in experiment [1] is on record as “inhibition of production of PGD2”. In addition, the Selectivity at human COX-2 (Table 1 esters) is on record as over 1320.
In turn, `COc1ccc2c(c1)c(CCOC(=O)c1ccc(Cl)cc1)c(C)n2Cc1ccc(Br)cc1` [Compound 5h, N-(p-bromobenzyl)-5-methoxy-2-methylindole-3-ethyl-(p-chloro)benzoate] registered an IC50 at ovine COX-1 of over 66000 nM.
`COc1ccc2c(c1)c(CCOC(=O)c1ccc(C)cc1)c(C)n2C(=O)c1ccc(Cl)cc1` [Compound 5b, N-(pchlorobenzoyl)-5-methoxy-2-methylindole-ethyl-(p-methyl)benzoate]: the half-inhibitory concentration (IC50) against ovine COX-1 was over 66000 nM; against human COX-2, 50 nM. Besides, the Selectivity at human COX-2 (Table 1 esters) was over 1320.
Take `COc1ccc2c(c1)c(CCOC(=O)c1ccc(Br)cc1)c(C)n2C(=O)c1ccc(Cl)cc1` [Compound 5f, N-(p-Chlorobenzoyl)-5-methoxy-2-methylindole-3-ethyl-(p-bromo)benzoate]: the results for the IC50 against ovine COX-1 and against human COX-2 were over 66000 nM and 40 nM, respectively. Also, on human COX-2 (Table 1 esters), the Selectivity is on record as over 1466.
As for `CCCCC(=O)OCCc1c(C)n(C(=O)c2ccc(Cl)cc2)c2ccc(OC)cc12` [Compound 5a, N-(p-chlorobenzoyl)-5-methoxy-2-methylindole-3-ethyl-valerate], the IC50 at ovine COX-1 (read-out: IC50 COX-1, Table 1 esters, ovine COX-1 (44 nM) preincubated 25° C. 15 min, [1-14C]-arachidonic acid 50 μM, 37° C., 30 seconds, duplicate) is over 66000 nM; at human COX-2 (read-out: IC50 COX-2, Table 1 esters, time-dependent inhibition, [1-14C]-arachidonic acid 50 μM, 37° C., 30 seconds, duplicate), 650 nM. The Selectivity on human COX-2 (Table 1 esters) was over 1015.
Regarding `COc1ccc2c(c1)c(CCOC(=O)c1ccc(I)cc1)c(C)n2C(=O)c1ccc(Cl)cc1` [Compound 5g, N-(phlorobenzoyl)-5-methoxy-2-methylindole-3-ethyl(-p-iodo)benzoate], the figures for the IC50 at ovine COX-1 and on human COX-2 were over 66000 nM and 50 nM, respectively. Moreover, the Selectivity at human COX-2 (Table 1 esters) is listed as over 1320.
In the same order, the values of `COc1ccc2c(c1)c(CCOC(=O)c1ccccc1OC)c(C)n2C(=O)c1ccc(Cl)cc1` [Compound 5d, N-(pchlorobenzoyl)-5-methoxy-2-methylindole-3thyl-(o-methoxy)benzoate] are over 66000 nM, 50 nM and over 1320.
“N-(p-chlorobenzoyl)-5-methoxy-2-methylindole-3-ethyl-(2-phenyl)ethylamide [Compound 9i]”: the IC50 was about 17000 nM at ovine COX-1 (read-out: IC50 COX-1, inventive amides table) and about 40 nM at human COX-2 (read-out: IC50 COX-2, inventive amides table). For the same compound, the Selectivity on human COX-2 (inventive amides table) was ~ 425.
For the compound `COc1ccc2c(c1)c(CCNC(=O)c1ccc(Cl)cc1)c(C)n2C(=O)c1ccc(Cl)cc1` [Compound 9e, N-(p-chlorobenzoyl)-5-methoxy-2-methylindole-3-ethyl-(p-chloro)benzamide], the values for the IC50 against ovine COX-1 and against human COX-2 were 4000 nM and 50 nM, respectively. Further, the “inhibition of production of PGD2” value in experiment [1] is reported as “inhibition of production of PGD2”. Further, in experiment [2], the “inhibition of edema in the rat footpad” value is reported as “inhibition of edema in the rat footpad”. The Selectivity on human COX-2 (inventive amides table) came out at 80.
For the compound `COc1ccc(C(=O)OCCc2c(C)n(C(=O)c3ccc(Cl)cc3)c3ccc(OC)cc23)cc1` [Compound 5c, N-(p-chlorobenzoyl)-5-methoxy-2-methylindole-3ethylo-(p-methoxy)benzoate], the values for the IC50 at ovine COX-1 and on human COX-2 were over 66000 nM and 40 nM, respectively. For the same compound, in experiment [1], the “inhibition of production of PGD2” value was “inhibition of production of PGD2”. The “inhibition of edema in the rat footpad” value in experiment [2] is given as “inhibition of edema in the rat footpad”. The Selectivity at human COX-2 (Table 1 esters) is reported as over 1466.
